ChEMBL document CHEMBL4308826, “Small Molecule Allosteric Modulators of G-Protein-Coupled Receptors: Drug-Target Interactions” (J Med Chem, 2018)
pIC50: −log10 of the molar value.

Legend:
[1] = target: T1, Proteinase-activated receptor 4 (Homo sapiens, UniProt Q96RI0); assay: Antagonist activity at human PAR4
T1 sequence (Q96RI0 whole entry): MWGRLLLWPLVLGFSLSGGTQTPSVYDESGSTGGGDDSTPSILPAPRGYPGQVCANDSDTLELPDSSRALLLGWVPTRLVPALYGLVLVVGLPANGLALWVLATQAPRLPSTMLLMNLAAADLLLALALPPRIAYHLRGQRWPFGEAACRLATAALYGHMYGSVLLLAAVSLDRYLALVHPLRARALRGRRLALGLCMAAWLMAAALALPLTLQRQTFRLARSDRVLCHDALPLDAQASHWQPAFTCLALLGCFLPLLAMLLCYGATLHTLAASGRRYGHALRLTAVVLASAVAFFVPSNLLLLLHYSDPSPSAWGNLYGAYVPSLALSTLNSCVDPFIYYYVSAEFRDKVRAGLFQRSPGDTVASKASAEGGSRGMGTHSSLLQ

[2] = target: T2, Proteinase-activated receptor 2 (Homo sapiens, UniProt P55085); assay: Antagonist activity at human PAR2
T2 sequence (P55085 whole entry): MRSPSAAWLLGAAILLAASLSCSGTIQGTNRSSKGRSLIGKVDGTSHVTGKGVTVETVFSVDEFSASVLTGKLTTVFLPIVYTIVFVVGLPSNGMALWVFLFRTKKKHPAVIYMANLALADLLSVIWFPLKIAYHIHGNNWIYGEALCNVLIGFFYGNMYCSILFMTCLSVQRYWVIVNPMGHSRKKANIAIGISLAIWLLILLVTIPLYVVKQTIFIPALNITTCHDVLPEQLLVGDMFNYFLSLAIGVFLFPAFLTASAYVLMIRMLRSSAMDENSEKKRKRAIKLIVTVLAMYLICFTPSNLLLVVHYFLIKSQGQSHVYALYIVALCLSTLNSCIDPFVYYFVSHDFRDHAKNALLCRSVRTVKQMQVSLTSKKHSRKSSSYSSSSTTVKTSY

[3] = target: T3, Proteinase-activated receptor 1 (Homo sapiens, UniProt P25116); assay: Antagonist activity at human PAR1
T3 sequence (P25116 whole entry): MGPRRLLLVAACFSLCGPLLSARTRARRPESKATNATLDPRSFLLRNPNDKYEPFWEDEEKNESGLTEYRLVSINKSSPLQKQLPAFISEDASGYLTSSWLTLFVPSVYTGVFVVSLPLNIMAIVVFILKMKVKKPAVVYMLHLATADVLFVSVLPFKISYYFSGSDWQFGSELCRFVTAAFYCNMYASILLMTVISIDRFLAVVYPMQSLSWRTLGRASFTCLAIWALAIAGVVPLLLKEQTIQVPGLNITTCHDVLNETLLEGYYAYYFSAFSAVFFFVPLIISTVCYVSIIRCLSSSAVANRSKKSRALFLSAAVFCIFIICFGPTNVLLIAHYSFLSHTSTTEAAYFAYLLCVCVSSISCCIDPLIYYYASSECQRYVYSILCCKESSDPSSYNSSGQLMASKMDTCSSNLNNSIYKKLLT

- pIC50 [1]: 6.42
- pIC50 [2]: > 8.60
- pIC50 [3]: < 4.30
SMILES: C[C@@H](C1CCCCC1)n1c(-c2cc3c(cc2Br)OCO3)nc2cc(C(=O)Nc3ccc(C#N)cc3)ccc21
